Patent US10251937B2, “Retro-inverso analogs of spadin display increased antidepressant effects” (MEDINCELL, priority 2014, dated 2019)
Ends that are not written are not given here.

Legend:
[1] = system: dogs; conditions: dogs with separation anxiety; cited from earlier work
[2] = target: T1, human two-pore domain potassium channel TREK-1 (Homo sapiens, UniProt O95069); conditions: Kennard et al; cited from earlier work
T1 sequence (O95069 1-426): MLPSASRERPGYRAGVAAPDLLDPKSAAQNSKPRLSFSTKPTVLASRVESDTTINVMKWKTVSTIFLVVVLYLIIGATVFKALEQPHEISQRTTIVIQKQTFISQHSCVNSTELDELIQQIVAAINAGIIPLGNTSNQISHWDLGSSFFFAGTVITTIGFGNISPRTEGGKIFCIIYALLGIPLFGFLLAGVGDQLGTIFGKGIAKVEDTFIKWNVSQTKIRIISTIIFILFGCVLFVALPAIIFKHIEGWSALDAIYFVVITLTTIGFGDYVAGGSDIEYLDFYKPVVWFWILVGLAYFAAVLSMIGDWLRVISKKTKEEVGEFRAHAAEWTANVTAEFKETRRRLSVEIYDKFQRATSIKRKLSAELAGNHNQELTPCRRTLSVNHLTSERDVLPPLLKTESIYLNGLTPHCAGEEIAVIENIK

[3] = system: C57Bl/6J mice; experiment: Novelty Suppressed Feeding (NSF) test; assay type: in vivo; conditions: 10 μg/kg i.v. daily for 4 days, test on day 5
Procedure: (§1) Stock solutions were prepared of 2 mg/mL (10^-3M) in distilled water, and before injection spadin solution was diluted in NaCl 0.9% to obtain the different concentrations used for treatments. Corticosterone (Sigma-Aldrich, France) was dissolved in drinking water at the concentration of 3.5 mg/L in the presence of 4.5 g/L of beta-cyclodextrin. […] Fluoxetine (Sigma-Aldrich, France) was dissolved in drinking water at the dose of 80 mg/L and administered during 21 days. For i.p. administration, fluoxetine (TEVA Santé, France) was dissolved in NaCl 0.9% at a concentration of 0.75 mg/mL. The amount injected was 3 mg/kg. Spadin and analogues were administered by i.v. injection. For acute treatment, drugs were administered in a single 100 μL bolus 30 min prior to the beginning of the behavioral tests. For subchronic treatment drugs were injected during 4 consecutive days and behavioral tests were performed on day 5, without additional injection.
The NSF paradigm is a two day test protocol. Day one, mice were deprived from food. Day two mice were placed in a highly brightly lit area, in a plastic box (45×45×20 cm), with a floor covered with wooden bedding. The test was carried out during a 10 min period; during this time the latency to eat was measured. During the test a single pellet of food was placed in the center of the box, on a white platform.

[4] = system: dentate gyrus of the mouse hippocampus; experiment: Hippocampal neurogenesis, BrdU-positive cell count; assay type: in vivo; conditions: 4 day treatment, 10 μg/kg i.v.
Procedure: One day after the injections of 5-bromo-2-deoxyuridine (BrdU), 12 mg per animal divided in four bolus of 100 μl injected every two hours with spadin or Analog 3 (SEQ ID NO:4) and Analog 8 (SEQ ID NO:9), mice were anesthetized with isoflurane and transcardially perfused with 20 mL of 0.9% NaCl followed by 20 mL paraformaldehyde in 4%/NaCl at a concentration of 0.9%. By using a vibratome (Leica) brains were cut in 40 μm sections, throughout the entire hippocampus. Eight slices, from bregma 3.3 to bregma 5.3, were retained to process the BrdU immunohistochemistry as previously described (Heurteaux, C. et al. Deletion of the background potassium channel TREK-1 results in a depression-resistant phenotype. Nat Neurosci 9, 1134, (2006)). For each BrdU labeling, slices were first incubated with a mouse monoclonal anti-BrdU antibody (1/8000, Becton Dinckinson). […]
It was previously shown that a 4-days subchronic treatment with spadin increased the hippocampal neurogenesis (Mazella, J. et al. Spadin, a sortilin-derived peptide, targeting rodent TREK-1 channels: a new concept in the antidepressant drug design. PLoS Biol 8, e1000355, (2010)). […] The neurogenesis in the dentate gyrus of the mouse hippocampus was analyzed by counting the number of progenitor cells that incorporated the DNA synthesis marker 5-bromo-2′deoxyuridine (BrdU).

[5] = system: C57Bl/6J mice; experiment: Forced Swimming Test (FST) in naive mice; assay type: in vivo
Procedure: Naïve male C57Bl/6J mice from 7 to 9 weeks old were used in all experiments (Janvier laboratory). Mice were housed 10 animals per cage under a 12-h light/12-h dark cycle (light on at 8:00 am), in a ventilated room at a temperature of 22±1° C. Animals had free access to water and food (A03; SAFE, Augy, France). All experiments were conducted according to policies on the care and use of laboratory animals of the Society for Neuroscience, and also with respect to national laws on animal use. The local Ethics Committee (CIEPAL) approved the experiments.
as §1
The animals were individually placed in a non-escapable cylinder (height 30 cm, diameter 15 cm) filled with 15 cm-water at 22±1° C. The trial was conducted for 6 min. The total period of immobility was manually measured during the last 4 min of the test. A mouse was considered immobile when it remained floating with only slight movements to keep its head above water.

| Compound | dogs less depressive as indicated by better behavior [1] [%] | effect on human TREK-1 channel [2] | latency to feed, NSF [3] [s] | number of BrdU-positive cells in the subgranular zone compared to saline [4] | immobility time, FST, acute treatment ([5]; 10 μg/kg acute i.v., measured 30 minutes after injection, n=10) [s] | immobility time, FST, subchronic treatment ([5]; 10 μg/kg i.v. once a day for 4 days, test on day 5) [s] | time of immobility, FST time course ([5]; 3 h after injection (order of listing)) [s] | remaining efficiency, % of the initial efficacy, FST ([5]; 3 h after the injection) [%] | time of immobility, FST time course ([5]; 7 h after injection (order of listing)) [s] | time of immobility, FST time course ([5]; 17 h after injection (order of listing)) [s] | reduction of immobility times, FST ([5]; after 17 h) | time of immobility, FST time course ([5]; first (initial) time point after injection, time not given) [s] | remaining efficiency, % of the initial efficacy, FST ([5]; seven hours after the injection) [%] |
| --- | --- | --- | --- | --- | --- | --- | --- | --- | --- | --- | --- | --- | --- |
| CNCCC(Oc1ccc(C(F)(F)F)cc1)c1ccccc1 (stereo not shown) [fluoxetine] | 73 | inhibit | – | – | – | – | – | – | – | – | – | – | – |
| APLPRWSGPIGVSWGLR [spadin, APLPRWSGPIGVSWGLR] | – | – | 151.11 ± 17.70 | significantly increased | 107.40 ± 5.05 | 123.70 ± 7.16 | 113.2 ± 5.0 | 84 | 150.8 ± 6.5 | 175.3 ± 7.5 | no reduction in the immobility times | 102.4 ± 6.2 | 30 |
